Source: the NIST ThermoML archive (doi:10.1016/j.jct.2013.10.034)

Test: xn = mol fraction of the nth substance listed
Conditions: 100 kPa, Liquid; for viscosity: Falling or rolling sphere viscometry; for mass density: Vibrating tube method

CCCC[N+]1(C)CCCC1.N#CN=C=[N-] [1-butyl-1-methylpyrrolidinium dicyanamide] + O
Conditions | mass density, 298.15 K [kg/m3] | mass density, 303.15 K [kg/m3] | viscosity, 298.15 K [mPa·s] | viscosity, 303.15 K [mPa·s] | viscosity, 308.15 K [mPa·s]
x1 = 0.0729 | 1007.24 | 1004.74 | 4.316 | 3.713 | 3.226
x1 = 0.1652 | 1012.47 | 1009.29 | 7.983 | 6.795 | 5.903
x1 = 0.2234 | 1014.18 | 1010.84 | 9.939 | 8.502 | 7.346
x1 = 0.3163 | 1015.68 | 1012.43 | 12.88 | 11.02 | 9.521
x1 = 0.3548 | 1016.11 | 1012.9 | 13.94 | 11.96 | 10.37
x1 = 0.4198 | 1016.65 | 1013.55 | 15.86 | 13.57 | 11.73
x1 = 0.4762 | 1016.99 | 1014 | 17.41 | 14.9 | 12.88
x1 = 0.5239 | 1017.27 | 1014.32 | 18.57 | 15.9 | 13.75
x1 = 0.6244 | 1017.71 | 1014.87 | 21.49 | 18.37 | 15.87
x1 = 0.629 | 1017.73 | 1014.89 | 21.62 | 18.48 | 15.96
x1 = 0.711 | 1018.09 | 1015.28 | 24.03 | 20.5 | 17.69
x1 = 0.7413 | 1018.22 | 1015.41 | 24.99 | 21.31 | 18.34
x1 = 0.8776 | 1018.79 | 1015.96 | 29.68 | 25.19 | 21.64
x1 = 0.9732 | 1019.13 | 1016.28 | 33.6 | 28.4 | 24.32
x1 = 1 | 1019.2 | 1016.38 | 34.74 | 29.33 | 25.09
